Structure (SMILES): N#Cc1ccc([C@@H]2O[C@H](CO)[C@@H](O)[C@H](O)[C@H]2O)cc1Cc1ccc(C2CC2)cc1.O=C(O)[C@@H]1CCCN1
- mechanical stability of the crystals (allows grinding of the crystals): high mechanical stability
- physical and chemical stability (under various environmental conditions and during the production of a medicament): high physical and chemical stability
